Converted amounts (≈) assume the structure as drawn. “And” between values parts separate entries of the source, which are not always exact repeats. Identical values can stand only once. Like-named read-outs stand apart in the source and are kept apart here. One block for each compound: values may come before it.
What was measured:
C. elegans [1] = test: Screening imidazole compounds: worm survival; type: in vivo, Caenorhabditis elegans; details: 150 μg/ml, 72 h, 20°C, young adult wild-type worms, liquid medium (S-Basal) with E. coli OP50
Protocol: 100–150 young adult wild-type worms were exposed to these compounds (150 μg/ml) in liquid medium (S-Basal) containing E. coli OP50. Micromolar concentrations for each compound are: 487 μM for 1, 428 μM for 2, 410 μM for 3, 375 μM for 4, 789 μM for 5, 735 μM for 6, 389 μM for 7, 319 μM for 8, 263 μM for 9, 806 μM for 10 and 657 μM for 11. Compounds were dissolved in water or DMSO according to their solubility. After 72 h, animal survival was analyzed. An animal was considered dead if it made no movement in response to gentle prodding with a worm pick. At least three independent experiments were analyzed.
We exposed 100–150 young adult worms to these compounds in liquid medium (S-Basal) containing the bacteria E. coli OP50 as a food source. After 72 h at 20°C, we analyzed worm survival (Fig 1B). […] The drug concentration chosen for this screening was 150 μg/ml, which is similar to those used in other screening studies. The corresponding molar concentration for each compound is detailed in Materials and Methods. Depending on their solubility properties, the compounds were dissolved either in water or DMSO (up to 0.75% final concentration).

[2] = system: Escherichia coli ATCC 25922; test: Minimum inhibitory and bactericidal concentrations, microdilution; type: cell-based; details: 24 h at 37°C; for MBC / MIC: Escherichia coli, ATCC25922
Protocol: (§1) The strains used in this study were Escherichia coli ATCC 25922 and Staphylococcus aureus ATCC 25923, kindly provided by Dr. Ziegler (Bacillus Genetic Stock Center, The Ohio State University). Stocks were stored in Mueller Hinton Broth (MHB, Biokar Diagnostics, France) supplemented with glycerol 20% at -70°C. Before running each test, the strains were incubated for 48 h at 37°C in MHB. Finally, the bacterial strains were sub-cultured in MHB at 37°C for 24 h. The solutions of antimicrobial agents and imidazolium salts were prepared following the Clinical and Laboratory Standards Institute (CLSI) guidelines for determination of Minimum Inhibitory Concentrations by the microdilution method (CLSI 2009). […] Cultures were incubated as described above and adjusted to OD625nm ~ 0.08–0.13 by the direct colony suspension method in saline water and finally adjusted to 2–8 10^5 CFU/ml by diluting 1:150 in MHB before testing. A volume of 100 μl of each sample dilution in saline water was transferred to the microplate well. Finally, an equal volume of the inoculum was added. The MIC was the lowest concentration at which there was no visible growth when compared with controls after 24 h at 37°C. To assess the minimum bactericidal concentration (MBC), 20 μl aliquots were taken from the wells where no visible growth was observed, seeded on petri dishes and covered with MH agar (MHA) at 45°C. The compounds were considered bactericidal at the concentration at which no visible colony was observed on the plate after 24 h at 37°C. All conditions were run at least in duplicate. The results were obtained from at least 3 independent experiments.

[3] = system: Staphylococcus aureus ATCC 25923; test: as above; type: cell-based; details: ATCC25923, 24 h at 37°C; for MBC: read-out: MBC S. aureus; for MIC: read-out: MIC S. aureus
Protocol: as §1

E. coli OP50 = test: OP50 growth in screening wells (qualitative); type: cell-based, Escherichia coli; details: 150 μg/ml, qualitative observation
From the text: During the screening assays, we qualitatively noticed that OP50 growth was inhibited in wells containing MI. This effect was not observed with DII. To quantify this observation, we determined minimum inhibitory concentration (MIC) and minimum bactericidal concentration (MBC) of both compounds in E. coli cultures (Fig 2A). […] Similar values were obtained when we performed these assays on S. aureus, a Gram-positive bacteria (Fig 2A). […] As we are here screening for specific anthelmintic activity, we restricted our further analysis to compounds that appear to exert nematicidal action without obvious lethal effects on other organisms. Therefore, we focused our studies only on DII, relegating the evaluation of MI as a potential anthelmintic drug.

C. elegans [4] = system: C. elegans; design: method as in PMID 21195075, PMID 23869246; details: 24 h, even at millimolar concentrations, ref [39], [41]; cited from earlier work
C. elegans [5] = test: Acute paralysis assays; type: in vivo, Caenorhabditis elegans
Protocol: Acute paralysis assays were carried out in microtiter plates containing the drug dissolved in M9 buffer. […] Each drug concentration was tested in two wells (containing 30 animals each) within a single experiment. […] The experiment was independently repeated at least three times.

C. elegans [6] = test: Worm cut preparation paralysis; type: in vivo, Caenorhabditis elegans; details: 10 min; DII 600 μM, levamisole 10 μM
Protocol: Cutworm assays were performed as previously described with slight modifications. Briefly, synchronized young adult animals were mounted in a glass microscope slide containing Artificial Perienteric Fluid (APF) (67 mM NaCl, 67 mM NaCH3COOH, 3 mM KCl, 15.7 mM MgCl2, 3 mM CaCl2 and 5 mM Tris, pH 7.6). 10 animals were severed between the middle and tail, approximately two-thirds from the anterior end. Worms were subsequently transferred to a multi-well plate containing APF or drug-APF and paralysis was evaluated after 10 minutes. All experiments were performed at least three times.

C. elegans [7] = test: Body length measurements; type: in vivo, Caenorhabditis elegans; details: 600 μM, 2 h
Protocol: Vehicle (0.75% DMSO) was used as a control. After 2 h, images were acquired and body length was measured using FIJI-ImageJ software. At least three independent experiments were analyzed.

C. elegans [8] = test: Egg-laying assays; type: in vivo, Caenorhabditis elegans; details: gravid worms
Protocol: Age-synchronized gravid worms were transferred to solid NGM plates containing different drug concentrations (100–300 μM). Each concentration was evaluated in triplicate and DMSO was used as a control. After 1 h, the number of laid eggs per worm was counted. This experiment was independently repeated three times.

Compound: Cc1cc(C)c(-n2ccnc2)c(C)c1 [Compound 10, mesityl-imidazole]
worm death (C. elegans [1]): 100% | MIC E. coli ([2]; listed as MI (10)): 128 µg/mL (≈ 687 µM) | MBC [2]: > 256 µg/mL | MIC [2]: 128 µg/mL and 680 µM | MBC [3]: > 256 µg/mL | MIC [3]: 128 µg/mL (≈ 687 µM) | OP50 growth in screening wells (E. coli OP50): inhibited

Compound: CCCSc1ccc2nc(NC(=O)OC)[nH]c2c1 [albendazole]
C. elegans death (C. elegans [4]): less than 25%

Compound: O=C(O)c1cn(C2CC2)c2cc(N3CCNCC3)c(F)cc2c1=O [cipro., ciprofloxacin, reference compound]
MBC [2]: 1 µg/mL (≈ 3.02 µM) | MIC [2]: 0.25 µg/mL (≈ 0.754 µM) | MBC [3]: 1 µg/mL (≈ 3.02 µM) | MIC [3]: 0.5 µg/mL (≈ 1.51 µM)

EC50 (C. elegans [5]; 10 min, L4 wild-type, Fig 4B, read-out: EC50 acute paralysis): 63.6 µM | EC50 (C. elegans [5]; Caenorhabditis elegans, 10 min, Fig 4E black circle (probably levamisole alone), 10 min, read-out: EC50 levamisole paralysis): 60 ± 1.12 µM | EC50 (C. elegans [5]; Caenorhabditis elegans, 10 min, Fig 4E dark pink triangle up (constant DII, probably 100 μM), 10 min, read-out: EC50 levamisole paralysis in presence of DII): 66 ± 1.15 µM | EC50 (C. elegans [5]; Caenorhabditis elegans, 10 min, Fig 4E light pink triangle down (constant DII, probably 200 μM), 10 min, read-out: EC50 levamisole paralysis in presence of DII): 62.2 ± 1.14 µM | EC50 (C. elegans [5]; Caenorhabditis elegans, 10 min, L4 wild-type, Fig 4B, read-out: EC50 acute paralysis): 63.6 ± 1.1 µM | EC50 (C. elegans [5]; Caenorhabditis elegans, 24 h, S5D Fig pink triangle (probably DII 100 μM for 24 h and during assay), read-out: EC50 levamisole paralysis after DII pre-exposure): 82.2 ± 1.39 µM | EC50 (C. elegans [5]; Caenorhabditis elegans, S5D Fig black circle (probably control without DII), read-out: EC50 levamisole paralysis): 82.4 ± 1.23 µM
Compound: c1ccc([C@H]2CN3CCSC3=N2)cc1 [levamisole]
paralysis in CB407 unc-49(e407)III hypersensitive strain (C. elegans [5]; 100 μM, 10 min): hypersensitive | paralyzed animals (C. elegans [5]; 600 μM, 10 min): 100% | paralysis in cut specimens (C. elegans [6]): paralysis is achieved at very low levamisole concentrations | body length (C. elegans [7]): worm shrinkage | laid eggs in 1 h, fold more than controls (C. elegans [8]; 100 μM): 3.8 fold | laid eggs in 1 h, fold more than controls (C. elegans [8]; 300 μM): 3.2 fold

Compound: CC(=O)Oc1ccccc1C(=O)Nc1ncc([N+](=O)[O-])s1 [nitazoxanide]
C. elegans death (C. elegans [4]): less than 25%

Compound: CN1CCCN=C1/C=C/c1cccs1 [pyrantel]
C. elegans death (C. elegans [4]): less than 25%

Compound: ivermectin
C. elegans death (C. elegans [4]): less than 25%

Source: PMC6312359, “Diisopropylphenyl-imidazole (DII): A new compound that exerts anthelmintic activity through novel molecular mechanisms” (PLoS Neglected Tropical Diseases, 2018)
